The target in assay [1] is T1, BTK (Homo sapiens (Human), UniProt Q06187). The experiment in a line: In Vitro PD Assay in Human Whole Blood (pBTK assay). Format: cell-based. Conditions: human heparinized whole blood, 37° C. for 30 min, total BTK capture and phosphotyrosine detection (ECL). On the procedure:
In Vitro PD Assay in Human Whole Blood
Human heparinized venous blood was purchased from Bioreclamation, Inc. or SeraCare Life Sciences and shipped overnight. Whole blood was aliquoted into 96-well plate and “spiked” with serial dilutions of test compound in DMSO or with DMSO without drug. The final concentration of DMSO in all wells was 0.1%. The plate was incubated at 37° C. for 30 min. Lysis buffer containing protease and phosphatase inhibitors was added to the drug-containing samples and one of the DMSO-only samples (+PPi, high control), while lysis buffer containing protease inhibitors was added to the other DMSO-only samples (−PPi, low control). All of the lysed whole blood samples were subjected to the total BTK capture and phosphotyrosine detection method described in US20160311802, incorporated herein by reference.

Assay [2] addresses T1, BTK. The experiment in a line: In Vitro BTK Kinase Assay: BTK-POLYGAT-LS ASSAY. Format: biochemical. To be noted: fluorescein-labeled polyGAT peptide 100 nM, BTK enzyme 0.25 nM, 30 minutes, TRF. On the procedure: In Vitro BTK Kinase Assay: BTK-POLYGAT-LS ASSAY
The purpose of the BTK in vitro assay is to determine compound potency against BTK through the measurement of IC50. […] For a typical assay, a […] aliquot of a ATP/peptide master mix (final concentration; ATP […], polyGAT 100 nM) in kinase buffer (10 mM Tris-HCl pH 7.5, 10 mM MgCl2, 200 μM Na3PO4, 5 mM DTT, 0.01% Triton X-100, and 0.2 mg/ml casein) is added to each well. […] The assay is incubated for 30 minutes before being stopped with 28 μL of a 50 mM EDTA solution. […] The plate is covered and incubated for 45 minutes at room temperature. Time resolved fluorescence (TRF) on Molecular Devices M5 (332 nm excitation; 488 nm emission; 518 nm fluorescein emission) is measured.

For orientation: IC50 means the concentration that inhibits the measured activity by half. A lower IC50 goes with greater potency in that assay.

T1 sequence (Q06187 whole entry): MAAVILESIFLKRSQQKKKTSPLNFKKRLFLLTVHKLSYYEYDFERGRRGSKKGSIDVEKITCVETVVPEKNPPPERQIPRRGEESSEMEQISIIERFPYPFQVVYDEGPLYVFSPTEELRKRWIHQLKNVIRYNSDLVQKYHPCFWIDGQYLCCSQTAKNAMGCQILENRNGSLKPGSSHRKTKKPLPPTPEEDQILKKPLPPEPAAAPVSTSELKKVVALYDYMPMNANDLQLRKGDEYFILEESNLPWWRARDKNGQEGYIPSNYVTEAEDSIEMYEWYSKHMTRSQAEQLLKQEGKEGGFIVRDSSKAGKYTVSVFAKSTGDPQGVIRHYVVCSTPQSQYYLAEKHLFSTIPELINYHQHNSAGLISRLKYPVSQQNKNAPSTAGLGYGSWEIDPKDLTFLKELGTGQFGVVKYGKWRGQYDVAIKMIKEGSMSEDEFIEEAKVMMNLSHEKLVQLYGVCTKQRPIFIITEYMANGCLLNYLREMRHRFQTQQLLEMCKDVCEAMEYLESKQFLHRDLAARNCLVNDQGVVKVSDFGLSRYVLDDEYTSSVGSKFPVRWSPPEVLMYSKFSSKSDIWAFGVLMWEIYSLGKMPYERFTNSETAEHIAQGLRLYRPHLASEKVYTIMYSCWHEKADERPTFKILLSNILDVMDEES

With `Cn1ccc(Nc2ncnc(-c3cc4c(cc3F)[C@H](NC(=O)c3nc(C(C)(C)C)no3)CCCC4)n2)n1` [Compound 85, (R)-3-(tert-butyl)-N-(3-fluoro-2-(4-((1-methyl-1H-pyrazol-3-yl)amino)-1,3,5-triazin-2-yl)-6,7,8,9-tetrahydro-5H-benzo[7]annulen-5-yl)-1,2,4-oxadiazole-5-carboxamide], the results for the 50% inhibitory concentration (IC50) on BTK [1] and against BTK [2] were less than 100 nM and less than 1 nM, respectively.
The matching figures for `Cc1c(CNC(=O)c2noc(C3(C)CC3)n2)ccc(-c2ncnc(Nc3ccn(C)n3)n2)c1F` [Compound 113, N-(3-fluoro-2-methyl-4-(4-((1-methyl-1H-pyrazol-3-yl)amino)-1,3,5-triazin-2-yl)benzyl)-5-(1-methylcyclopropyl)-1,2,4-oxadiazole-3-carboxamide]: 100 to 500 nM and less than 1 nM.
The matching figures for `Cc1cc(-c2ncnc(Nc3cnn(C)c3)n2)c(F)cc1CNC(=O)c1cn(C(C)(C)C)nn1` [Compound 62, 1-(tert-butyl)-N-(5-fluoro-2-methyl-4-(4-((1-methyl-1H-pyrazol-4-yl)amino)-1,3,5-triazin-2-yl)benzyl)-1H-1,2,3-triazole-4-carboxamide]: 500 to 10000 nM and 1 to 10 nM.
In the case of `Cc1cc(-c2ncnc(Nc3cnn(C)c3)n2)c(F)cc1CNC(=O)c1nnn(C(C)(C)C)n1` [Compound 58, 2-(tert-butyl)-N-(5-fluoro-2-methyl-4-(4-((1-methyl-1H-pyrazol-4-yl)amino)-1,3,5-triazin-2-yl)benzyl)-2H-tetrazole-5-carboxamide], the values for the IC50 at BTK [1] and against BTK [2] were 100 to 500 nM and less than 1 nM, respectively.
The matching figures for `Cc1cc(-c2ncnc(Nc3ccn(C)n3)n2)ccc1CNC(=O)c1cc(C(C)(C)C)on1` [Compound 42, 5-(tert-butyl)-N-(2-methyl-4-(4-((1-methyl-1H-pyrazol-3-yl)amino)-1,3,5-triazin-2-yl)benzyl)isoxazole-3-carboxamide]: 500 to 10000 nM and 1 to 10 nM.
For `Cn1ccc(Nc2ncnc(-c3ccc(CNC(=O)c4nc(C(C)(C)C)no4)c(CC(F)F)c3)n2)n1` [Compound 68, 3-(tert-butyl)-N-(2-(2,2-difluoroethyl)-4-(4-((1-methyl-1H-pyrazol-3-yl)amino)-1,3,5-triazin-2-yl)benzyl)-1,2,4-oxadiazole-5-carboxamide] the same measures were 500 to 10000 nM and 1 to 10 nM.
For `Cc1cc(-c2ncnc(Nc3cnn(C)c3)n2)ccc1CNC(=O)c1nc(C(C)(C)C)co1` [Compound 114, 4-(tert-butyl)-N-(2-methyl-4-(4-((1-methyl-1H-pyrazol-4-yl)amino)-1,3,5-triazin-2-yl)benzyl)oxazole-2-carboxamide] the same measures were 500 to 10000 nM and less than 1 nM.
On to `Cn1ccc(Nc2ncnc(-c3ccc4c(c3)CCCC[C@H]4NC(=O)c3noc(C(C)(C)CF)n3)n2)n1` [Compound 53, (R)-5-(1-fluoro-2-methylpropan-2-yl)-N-(2-(4-((1-methyl-1H-pyrazol-3-yl)amino)-1,3,5-triazin-2-yl)-6,7,8,9-tetrahydro-5H-benzo[7]annulen-5-yl)-1,2,4-oxadiazole-3-carboxamide], for which the IC50 was 100 to 500 nM against BTK [1] and less than 1 nM on BTK [2].
The matching figures for `Cc1c([C@@H](C)NC(=O)c2cc(C(C)(C)C)on2)ccc(-c2ncnc(Nc3cnn(C)c3)n2)c1F` [Compound 76, (R)-5-(tert-butyl)-N-(1-(3-fluoro-2-methyl-4-(4-((1-methyl-1H-pyrazol-4-yl)amino)-1,3,5-triazin-2-yl)phenyl)ethyl)isoxazole-3-carboxamide]: 100 to 500 nM and less than 1 nM.
The matching figures for `Cn1cc(Nc2ncnc(-c3cc4c(cc3F)[C@H](NC(=O)c3nc(C(C)(C)C)no3)CCCC4)n2)cn1` [Compound 87, (R)-3-(tert-butyl)-N-(3-fluoro-2-(4-((1-methyl-1H-pyrazol-4-yl)amino)-1,3,5-triazin-2-yl)-6,7,8,9-tetrahydro-5H-benzo[7]annulen-5-yl)-1,2,4-oxadiazole-5-carboxamide]: less than 100 nM and less than 1 nM.
As to `Cc1cc(-c2ncnc(Nc3cnn(C)c3)n2)ccc1CNC(=O)c1cnc(C(C)(C)C)o1` [Compound 99, 2-(tert-butyl)-N-(2-methyl-4-(4-((1-methyl-1H-pyrazol-4-yl)amino)-1,3,5-triazin-2-yl)benzyl)oxazole-5-carboxamide], the IC50 at BTK [1] is 500 to 10000 nM; at BTK [2], less than 1 nM.
For `Cc1cc(-c2ncnc(Nc3cnn(C)c3)n2)ccc1CNC(=O)c1cnn(C(C)(C)C)c1` [Compound 37, 1-(tert-butyl)-N-(2-methyl-4-(4-((1-methyl-1H-pyrazol-4-yl)amino)-1,3,5-triazin-2-yl)benzyl)-1H-pyrazole-4-carboxamide] the same measures were 100 to 500 nM and less than 1 nM.
Turning to `Cc1cc(-c2ncnc(Nc3cnn(C)c3)n2)c(F)cc1CNC(=O)c1noc(C(C)(C)C)n1` [Compound 56, 5-(tert-butyl)-N-(5-fluoro-2-methyl-4-(4-((1-methyl-1H-pyrazol-4-yl)amino)-1,3,5-triazin-2-yl)benzyl)-1,2,4-oxadiazole-3-carboxamide], the IC50 against BTK [1] is 100 to 500 nM; against BTK [2] it was less than 1 nM.
For `Cc1c(-c2ncnc(Nc3ccn(C)n3)n2)ccc([C@@H](C)NC(=O)c2noc(C(C)(C)C)n2)c1Cl` [Compound 79, (R)-5-(tert-butyl)-N-(1-(2-chloro-3-methyl-4-(4-((1-methyl-1H-pyrazol-3-yl)amino)-1,3,5-triazin-2-yl)phenyl)ethyl)-1,2,4-oxadiazole-3-carboxamide] the same measures were 500 to 10000 nM and 1 to 10 nM.
For `Cc1cc(-c2ncnc(Nc3cnn(C)c3)n2)ccc1CNC(=O)c1noc(C2(CF)CC2)n1` [Compound 49, 5-(1-(fluoromethyl)cyclopropyl)-N-(2-methyl-4-(4-((1-methyl-1H-pyrazol-4-yl)amino)-1,3,5-triazin-2-yl)benzyl)-1,2,4-oxadiazole-3-carboxamide] the same measures were 100 to 500 nM and less than 1 nM.
In the case of `Cn1cc(Nc2ncnc(-c3ccc(CNC(=O)c4nc(C(C)(C)C)no4)c(Cl)c3)n2)cn1` [Compound 16, 3-(tert-butyl)-N-(2-chloro-4-(4-((1-methyl-1H-pyrazol-4-yl)amino)-1,3,5-triazin-2-yl)benzyl)-1,2,4-oxadiazole-5-carboxamide], the IC50 at BTK [1] is 100 to 500 nM; on BTK [2], less than 1 nM.
The matching figures for `Cc1cc(-c2ncnc(Nc3cnn(C)c3)n2)ccc1CNC(=O)c1cn(C(C)(C)C)nn1` [Compound 109, 1-(tert-butyl)-N-(2-methyl-4-(4-((1-methyl-1H-pyrazol-4-yl)amino)-1,3,5-triazin-2-yl)benzyl)-1H-1,2,3-triazole-4-carboxamide]: 100 to 500 nM and 1 to 10 nM.
The matching figures for `Cn1cc(Nc2ncnc(-c3ccc4c(c3)CN(CC(F)(F)F)CC[C@H]4NC(=O)c3noc(C(C)(C)C)n3)n2)cn1` [Compound 90, (R)-5-(tert-butyl)-N-(8-(4-((1-methyl-1H-pyrazol-4-yl)amino)-1,3,5-triazin-2-yl)-2-(2,2,2-trifluoroethyl)-2,3,4,5-tetrahydro-1H-benzo[c]azepin-5-yl)-1,2,4-oxadiazole-3-carboxamide]: less than 100 nM and less than 1 nM.
As for `Cc1c(CNC(=O)c2coc(C(C)(C)C)n2)ccc(-c2ncnc(Nc3ccn(C)n3)n2)c1F` [Compound 100, 2-(tert-butyl)-N-(3-fluoro-2-methyl-4-(4-((1-methyl-1H-pyrazol-3-yl)amino)-1,3,5-triazin-2-yl)benzyl)oxazole-4-carboxamide], the results for the half-maximal inhibitory concentration (IC50) on BTK [1] and at BTK [2] were 500 to 10000 nM and less than 1 nM, respectively.
Turning to `Cn1cc(Nc2ncnc(-c3ccc4c(c3)CCCC[C@H]4NC(=O)c3cnc(C(C)(C)C)o3)n2)cn1` [Compound 35, 2-tert-butyl-N-[(5R)-2-[4-[(1-methylpyrazol-4-yl)amino]-1,3,5-triazin-2-yl]-6,7,8,9-tetrahydro-5H-benzo[7]annulen-5-yl]-oxazole-5-carboxamide], the IC50 on BTK [1] was 100 to 500 nM; on BTK [2] it was less than 1 nM.
As to `Cn1cc(Nc2ncnc(-c3ccc(CNC(=O)c4noc(C(C)(C)C)n4)c(Cl)c3F)n2)cn1` [Compound 28, 5-(tert-butyl)-N-(2-chloro-3-fluoro-4-(4-((1-methyl-1H-pyrazol-4-yl)amino)-1,3,5-triazin-2-yl)benzyl)-1,2,4-oxadiazole-3-carboxamide], the results for the IC50 against BTK [1] and against BTK [2] were less than 100 nM and less than 1 nM, respectively.
For `Cn1cc(Nc2ncnc(-c3ccc(CNC(=O)c4noc(C(C)(C)C)n4)c(Cl)c3)n2)cn1` [Compound 15, 5-(tert-butyl)-N-(2-chloro-4-(4-((1-methyl-1H-pyrazol-4-yl)amino)-1,3,5-triazin-2-yl)benzyl)-1,2,4-oxadiazole-3-carboxamide] the same measures were 100 to 500 nM and less than 1 nM.

(Values after patent US10899753B2, “Inhibiting agents for Bruton's tyrosine kinase” (BIOGEN MA INC., priority 2018, dated 2021).)
